Legend:
[1] = test system: Human breast cancer cells SK-BR-3 (WT); test: Cell proliferation inhibition assay (CTG), SK-BR-3 (WT); assay type: cell-based; settings: Homo sapiens, 72 h, SK-BR-3 (WT) cells, 3 days incubation, CTG readout
Experimental: (§1) Cell Proliferation Inhibition Assay
(§2) 1. Experimental Materials
(§3) II. Experimental Protocol
(§4) • a) Cell suspension was prepared; • b) The medium was removed from the culture flask; • c) The cells were rinsed once with PBS; • d) Trypsin was added for digestion, and the cells were centrifuged and collected; • e) The cells were resuspended in medium, counted and adjusted to an appropriate concentration; • f) 100 µL of cell suspension was added to each well of a 96-well plate. One plate was used for each cell line, which was incubated overnight in a 37 °C, 5% CO2 incubator.
(§5) 2. Treatment of Compounds
(§6) • a) Serial dilutions of the test compounds were prepared: The compound was prepared as a 10 mM stock solution. 18 µL of the stock solution was dissolved in 982 µL of the culture medium containing DMSO, followed by 4-fold serial dilutions in culture medium containing 0.5% DMSO to give 9 concentrations. The concentrations of the diluted compound were as follows: 180000 nM, 45000 nM, 11250 nM, 2812.5 nM, 703.13 nM, 175.78 nM, 43.95 nM, 10.99 nM, and 2.75 nM. • b) After thorough mixing, 20 µL of each compound solution was added to the cell plate containing 100 µL of cells per well. Each concentration was tested in triplicate. Final concentrations of the compound were as follows: 30000 nM, 7500 nM, 1875 nM, 468.75 nM, 117.188 nM, 29.30 nM, 7.32 nM, 1.83 nM, and 0.46 nM. • c) The cells were transferred into the incubator and incubated for 3 days.
(§7) The cell plate was removed, 25 µL of CTG reagent was added to each well of the 96-well plate, the mixture was shook on a plate shaker at room temperature for 10 minutes, and the plate was read.
(§8) The cell survival rate was calculated using the following formula (% Cell Survival): % Cell Survival = 100% × (OD_Sample−OD_LCave)/(OD_HC−OD_LCave) [formula] • OD_HC: Reading of the 0.1‰ DMSO control group • OD_Sample: Reading of cells treated with compound • OD_LCave: Reading of blank medium
(§9) Analyzed by Prism: Dose-response-Inhibition - Log (inhibitor) vs response (three parameters for the best fit).

[2] = test system: Human breast cancer cells T47D (H1047R); test: Cell proliferation inhibition assay (CTG), T47D (H1047R); assay type: cell-based; settings: Homo sapiens, 72 h, 3 days incubation, CTG readout
Experimental: as §1, §2, §3, §4, §5, §6, §7, §8, §9

| Structure (SMILES) | IC50 [1] | IC50 [2] |
| --- | --- | --- |
| C[C@@H](Nc1ccc(Cl)nc1C(=O)O)c1cc(F)cc2c(=O)c3c(oc12)CN(S(=O)(=O)c1cccc2c1CCO2)CC3 [Compound C120] | > 5 µM | ≤ 0.5 µM |
| C[C@@H](Nc1ccc(Cl)nc1C(=O)O)c1cc(F)cc2c(=O)c3c(oc12)CN(S(=O)(=O)N1CCC(F)(F)CC1)CC3 [Compound C121] | > 5 µM | ≤ 0.5 µM |
| C[C@@H]1CN(S(=O)(=O)N2CCc3c(oc4c([C@@H](C)Nc5ccc(Cl)nc5C(=O)O)cc(F)cc4c3=O)C2)CCO1 [Compound C122] | > 5 µM | ≤ 0.5 µM |
| C[C@H]1CN(S(=O)(=O)N2CCc3c(oc4c([C@@H](C)Nc5ccc(Cl)nc5C(=O)O)cc(F)cc4c3=O)C2)CCO1 [Compound C123] | > 5 µM | ≤ 0.5 µM |
| C[C@@H](Nc1ccc(Cl)nc1C(=O)O)c1cc(F)cc2c(=O)c3c(oc12)CN(S(=O)(=O)c1cccc(=O)n1C)CC3 [Compound C124] | > 5 µM | 0.5 to 2 µM |
| Cc1nn(C)c(C)c1S(=O)(=O)N1CCc2c(oc3c([C@@H](C)Nc4ccc(Cl)nc4C(=O)O)cc(F)cc3c2=O)C1 [Compound C125] | > 5 µM | ≤ 0.5 µM |
| Cc1ncn(C)c1S(=O)(=O)N1CCc2c(oc3c([C@@H](C)Nc4ccc(Cl)nc4C(=O)O)cc(F)cc3c2=O)C1 [Compound C126] | > 5 µM | 0.5 to 2 µM |
| C[C@@H]1CN(S(=O)(=O)N2CCc3c(oc4c([C@@H](C)Nc5ccc(Cl)nc5C(=O)O)cc(F)cc4c3=O)C2)C[C@@H](C)O1 [Compound C127] | > 5 µM | ≤ 0.5 µM |
| Cc1cnn(C)c1S(=O)(=O)N1CCc2c(oc3c([C@@H](C)Nc4ccc(Cl)nc4C(=O)O)cc(F)cc3c2=O)C1 [Compound C128] | > 5 µM | ≤ 0.5 µM |
| C[C@@H](Nc1ccc(Cl)nc1C(=O)O)c1cc(F)cc2c(=O)c3c(oc12)CN(S(=O)(=O)c1cc(F)cc(F)c1F)CC3 [Compound C129] | > 5 µM | ≤ 0.5 µM |
| C[C@@H](Nc1ccc(Cl)nc1C(=O)O)c1cc(F)cc2c(=O)c3c(oc12)CN(S(=O)(=O)N1CCOC(C)(C)C1)CC3 [Compound C130] | > 5 µM | ≤ 0.5 µM |
| C[C@H]1CN(S(=O)(=O)N2CCc3c(oc4c([C@@H](C)Nc5ccc(Cl)nc5C(=O)O)cc(F)cc4c3=O)C2)C[C@H](C)O1 [Compound C132] | > 5 µM | ≤ 0.5 µM |
| CC1CN(S(=O)(=O)N2CCc3c(oc4c(C(C)Nc5ccc(Cl)nc5C(=O)O)cc(F)cc4c3=O)C2)CC(C)O1 (stereo not drawn) [Compound C133] | > 5 µM | ≤ 0.5 µM |
| Cc1nnn(C)c1S(=O)(=O)N1CCc2c(oc3c([C@@H](C)Nc4ccc(Cl)nc4C(=O)O)cc(F)cc3c2=O)C1 [Compound C134] | > 5 µM | ≤ 0.5 µM |
| C[C@@H](Nc1ccc(Cl)nc1C(=O)O)c1cc(F)cc2c(=O)c3c(oc12)CN(S(=O)(=O)c1c(F)ccc(F)c1F)CC3 [Compound C135] | > 5 µM | ≤ 0.5 µM |
| C[C@@H](Nc1ccc(Cl)nc1C(=O)O)c1cc(F)cc2c(=O)c3c(oc12)CN(S(=O)(=O)c1cccn2ncc(Cl)c12)CC3 [Compound C137] | > 5 µM | ≤ 0.5 µM |
| C[C@@H](Nc1ccc(Cl)nc1C(=O)O)c1cc(F)cc2c(=O)c3c(oc12)CN(S(=O)(=O)C1=CCOCC1)CC3 [Compound C138] | > 5 µM | ≤ 0.5 µM |
| Cc1cc([C@@H](C)Nc2ccccc2C(=O)O)c2oc3c(c(=O)c2c1)CCN(S(=O)(=O)c1c(C)noc1C)C3 [Compound C139] | > 5 µM | ≤ 0.5 µM |
| Cc1noc(C)c1S(=O)(=O)N1CCc2c(oc3c([C@@H](C)Nc4ccccc4C(=O)O)cc(F)cc3c2=O)C1 [Compound C140] | > 5 µM | ≤ 0.5 µM |
| C[C@@H](Nc1ccccc1C(=O)O)c1cc(F)cc2c(=O)c3c(oc12)CN(S(=O)(=O)N1CCC(F)(F)CC1)CC3 [Compound C141] | > 5 µM | 0.5 to 2 µM |
| Cc1cc([C@@H](C)Nc2ccccc2C(=O)O)c2oc3c(c(=O)c2c1)CCN(S(=O)(=O)N1CCOC(C)(C)C1)C3 [Compound C142] | > 5 µM | ≤ 0.5 µM |
| C[C@@H](Nc1ccccc1C(=O)O)c1cc(F)cc2c(=O)c3c(oc12)CN(S(=O)(=O)N1CCOC(C)(C)C1)CC3 [Compound C143] | > 5 µM | ≤ 0.5 µM |
| Cc1cc([C@@H](C)Nc2ccccc2C(=O)O)c2oc3c(c(=O)c2c1)CCN(S(=O)(=O)N1CCO[C@H](C)C1)C3 [Compound C144] | > 5 µM | ≤ 0.5 µM |

| Structure (SMILES) | IC50 [1] | IC50 [2] |
| --- | --- | --- |
| C[C@@H]1CN(S(=O)(=O)N2CCc3c(oc4c([C@@H](C)Nc5ccccc5C(=O)O)cc(F)cc4c3=O)C2)CCO1 [Compound C145] | > 5 µM | ≤ 0.5 µM |
| C[C@@H](Nc1ccccc1C(=O)O)c1cc(F)cc2c(=O)c3c(oc12)CN(S(=O)(=O)C1CCOCC1)CC3 [Compound C146] | > 5 µM | ≤ 0.5 µM |
| Cc1cc([C@@H](C)Nc2ccccc2C(=O)O)c2oc3c(c(=O)c2c1)CCN(S(=O)(=O)N1CCOC2(CC2)C1)C3 [Compound C147] | > 5 µM | ≤ 0.5 µM |
| C[C@@H](Nc1ccccc1C(=O)O)c1cc(F)cc2c(=O)c3c(oc12)CN(S(=O)(=O)N1CCOC2(CC2)C1)CC3 [Compound C148] | > 5 µM | ≤ 0.5 µM |
| Cc1cc([C@@H](C)Nc2ccccc2C(=O)O)c2oc3c(c(=O)c2c1)CCN(S(=O)(=O)c1cccc2c1CCO2)C3 [Compound C149] | > 5 µM | ≤ 0.5 µM |
| C[C@@H](Nc1ccccc1C(=O)O)c1cc(F)cc2c(=O)c3c(oc12)CN(S(=O)(=O)c1cccc2c1CCO2)CC3 [Compound C150] | > 5 µM | ≤ 0.5 µM |
| Cc1cc([C@@H](C)Nc2ccccc2C(=O)O)c2oc3c(c(=O)c2c1)CCN(S(=O)(=O)c1c(Cl)ccc2c1CCO2)C3 [Compound C151] | > 5 µM | ≤ 0.5 µM |
| C[C@@H](Nc1ccccc1C(=O)O)c1cc(F)cc2c(=O)c3c(oc12)CN(S(=O)(=O)c1c(Cl)ccc2c1CCO2)CC3 [Compound C152] | > 5 µM | ≤ 0.5 µM |
| Cc1cc([C@@H](C)Nc2ccccc2C(=O)O)c2oc3c(c(=O)c2c1)CCN(S(=O)(=O)N1CCC(F)(F)CC1)C3 [Compound C153] | > 5 µM | ≤ 0.5 µM |
| Cc1cc([C@@H](C)Nc2ccccc2C(=O)O)c2oc3c(c(=O)c2c1)CCN(S(=O)(=O)N1C[C@@H](C)O[C@H](C)C1)C3 [Compound C154] | > 5 µM | ≤ 0.5 µM |
| C[C@@H]1CN(S(=O)(=O)N2CCc3c(oc4c([C@@H](C)Nc5ccccc5C(=O)O)cc(F)cc4c3=O)C2)C[C@@H](C)O1 [Compound C155] | > 5 µM | ≤ 0.5 µM |
| Cc1cc([C@@H](C)Nc2ccccc2C(=O)O)c2oc3c(c(=O)c2c1)CCN(S(=O)(=O)c1c(C)nnn1C)C3 [Compound C156] | > 5 µM | ≤ 0.5 µM |
| Cc1nnn(C)c1S(=O)(=O)N1CCc2c(oc3c([C@@H](C)Nc4ccccc4C(=O)O)cc(F)cc3c2=O)C1 [Compound C157] | > 5 µM | 0.5 to 2 µM |
| Cc1cc([C@@H](C)Nc2ccccc2C(=O)O)c2oc3c(c(=O)c2c1)CCN(S(=O)(=O)c1c(C)cnn1C)C3 [Compound C158] | > 5 µM | ≤ 0.5 µM |
| Cc1cnn(C)c1S(=O)(=O)N1CCc2c(oc3c([C@@H](C)Nc4ccccc4C(=O)O)cc(F)cc3c2=O)C1 [Compound C159] | > 5 µM | ≤ 0.5 µM |
| Cc1nsc(C)c1S(=O)(=O)N1CCc2c(oc3c([C@@H](C)Nc4ccccc4C(=O)O)cc(F)cc3c2=O)C1 [Compound C160] | > 5 µM | ≤ 0.5 µM |
| Cc1cc([C@@H](C)Nc2ccccc2C(=O)O)c2oc3c(c(=O)c2c1)CCN(S(=O)(=O)c1ccccc1F)C3 [Compound C162] | > 5 µM | ≤ 0.5 µM |
| CCOC(=O)c1ccccc1N[C@H](C)c1cc(C)cc2c(=O)c3c(oc12)CN(S(=O)(=O)N1CCOCC1)CC3 [Compound C165] | > 5 µM | 0.5 to 2 µM |
| Cc1cc([C@@H](C)Nc2ccccc2C(=O)O)c2oc3c(c(=O)c2c1)CCN(S(C)(=O)=O)C3 [Compound C168] | > 5 µM | 0.5 to 2 µM |
| Cc1cc([C@@H](C)Nc2ccccc2C(=O)O)c2oc3c(c(=O)c2c1)CCN(C(C)C)C3 [Compound C171] | > 5 µM | 0.5 to 2 µM |
| Cc1cc([C@@H](C)Nc2ccccc2C(=O)O)c2oc3c(c(=O)c2c1)CCN(c1ccccn1)C3 [Compound C172] | > 5 µM | ≤ 0.5 µM |
| Cc1cc([C@@H](C)Nc2ccccc2C(=O)O)c2oc3c(c(=O)c2c1)CCN(C1CC2CCC1C2)C3 (stereo partly drawn) [Compound C173] | > 5 µM | 0.5 to 2 µM |
